Key:
Format in all cases: in vivo
[1] = tested on: female adult Tetranychus urticae Koch; experiment: Miticidal effect on adult Tetranychus urticae Koch (Phaseolus leaf dip); conditions: leaf immersion, 25° C., five days after treatment
Description: The stem part of a Phaseolus seedling with one fresh first leaf remaining thereon was inserted in a test tube (a volume of 50 ml) containing water, where 15 female adult Tetranychus urticae Koch per one leaf was then inoculated. […] Five days after the treatment, the number of the female adult Tetranychus urticae Koch was counted on the Phaseolus leave, to calculate the adult death ratio (%) based on the above results. The results are shown in Table-6 (Compound Nos. in the table below correspond to Compound Nos. in Table-1).

[2] = tested on: Erypsiphe graminis; experiment: Fungicidal and bactericidal effect on wheat powdery mildew (spray on potted wheat, then inoculation); conditions: 500 ppm, spray on wheat (Norin No.61), diseased leaf area after 7 to 10 days
Description: Compound (III) disclosed in JP-A-64-25763, tebufenpyrade and various compounds in accordance with the present invention were individually prepared into preparations in the same manner as in Formulation 3 The resulting preparations were diluted to given concentrations and sprayed on the stems and leave of a wheat plant (species: Norin No.61) at the one-leaf to 2-leaf stage as grown in a pot of a 6-cm diameter, at a ratio of 10-ml volume per one pot. After drying the chemical preparations in air, the wheat plant was exposed to the spore collected from wheat leave afflicted with Erypsiphe graminis as the microorganism causing wheat powdery mildew, for inoculation. Then, the plant was left to stand alone in a green house for 7 to 10 days.
Evaluation was carried out follows. The ratio of the diseased area of each leaf was examined to calculate the control ratio according to the following formula. The results are shown in Table 3 (in the table, Compound Nos. correspond to Compound Nos. in Table-1.) • Control ratio (%) • =[(mean ratio of diseased areas in non-treated lot) • −(mean ratio of diseased areas in treated lot)]× • ×100
/ (mean ratio of diseased areas in non-treated lot)

[3] = tested on: Puccinia recondita; experiment: Fungicidal and bactericidal effect on wheat rust (spray on potted wheat seedling, then inoculation); conditions: 500 ppm, spray on wheat seedling (Norin No.61), diseased leaf area after 7 days
Description: Compound (III) disclosed in JP-A-64-25763 and various compounds in accordance with the present invention were individually prepared into preparations in the same manner as in Preparation 3. The resulting preparations were diluted to given concentrations and sprayed on the stems and leave of a wheat seedling (species: Norin No.61) at the one-leaf to 2-leaf stage as grown in a pot of a 6-cm diameter, at a ratio of 10-ml volume per one pot. After drying the chemical preparations in air, a spore suspension prepared by grinding the spore collected from wheat leave afflicted with Puccinia recondita as the microorganism causing wheat rust was sprayed on the wheat plant, for inoculation. Then, the plant was left to stand alone in a moist chamber at 22° C. for 15 hours. Subsequently, the plant was left to stand in a water pool in a green house for 7 days.
Evaluation was carried out by examining the ratio of the diseased area of each leaf to calculate the control ratio by the same method as in Test Example 1.
The results are shown in Table 4 (in the table, Compound Nos. correspond to Compound Nos, in Table-1.)

[4] = tested on: 3rd instar Spodoptera litura larvae; experiment: Effect on larvae of Spodoptera litura (cabbage leaf dip); conditions: foliar, 120 h, cabbage leaf immersed, 25° C., five days, agonizing insect counted as 0.5 death, read-out: Insecticide Activity (%)
Description: Compound (III) disclosed in JP-A-64-25763 and various compounds in accordance with the present invention were individually prepared into insecticide preparations according to the formulation of Formulation Example 1. The resulting insecticides of the present invention (hydrates) were diluted with water, where chopped cabbage leave (a diameter of 6 cm) were then immersed for one minute. After immersion and subsequent drying in air, the cabbage leave were placed in a plastic cup (inner diameter of 7 cm), where five larvae each of 3rd instar Spodoptera litura were left (twice in duplicate per one concentration). The plastic cup was kept in a thermostat at 25° C. Five days after the larvae were left in the plastic cup, the death and agony of these larvae were examined, to calculate the insecticide activity (%) while an agonizing insect was counted as 0.5 insect death. The results are shown in Table 5 (in the table, Compound Nos. correspond to Compound Nos. in Table-1.)

Row | SMILES | Adult death ratio (%) ([1]; 500 ppm) | Control Ratio (%) [2] | Control Ratio (%) [3] | also measured
1 | Cn1nc2c(c1C(=O)NCc1ccc(-c3ccc(OC(F)(F)F)cc3)cc1)CCCC2 [compound 106] | 100% |  |  | 
2 | CCc1nn(C)c(C(=O)NCc2ccc(C(C)(C)C)cc2)c1Cl [tebufenpyrade] |  | 77% |  | Adult death ratio (%) ([1]; 0.8 ppm): 0%; Adult death ratio (%) ([1]; 3.1 ppm): 80%; Adult death ratio (%) ([1]; 12.5 ppm): 100%
3 | CCCCCCCc1ccc(-c2ccc(CNC(=O)c3cc(CC)nn3C)cc2)cc1 [compound 13] |  | 100% |  | 
4 | CCc1cc(C(=O)NCc2ccc(-c3ccc(OC(F)F)cc3)cc2)n(C)n1 [Compound No. 30, N-[4-(4-Difluoromethoxyphenyl)benzyl]-1-methyl-3-ethylpyrazole-5-carboxamide] | 100% | 100% | 100% | 
5 | CCCCCc1ccc(-c2ccc(CNC(=O)c3cc(CC)nn3C)cc2)cc1 [Compound No. 11] | 100% |  |  | 
6 | CCc1cc(C(=O)NCc2ccc(-c3ccc(OC(C)C)cc3)cc2)n(C)n1 [compound 25] |  | 100% | 100% | 
7 | Cc1nn(C)c(C(=O)NC(C)c2ccc(-c3ccccc3)cc2)c1Br (stereo not shown) [Compound (III)] | 15% | 0% | 0% | inhibition at 500 ppm [4]: 20%
